Results taken from a compilation of properties of binary mixtures (doi:10.1098/rsos.241459/v2/response1).

Assay: xn = mol fraction of the nth substance listed
Details: 298.15 K, 100 kPa

What does the source list for `OCCO` + CCCC[n+]1ccn(C)c1.F[B-](F)(F)F?
electrical conductivity (x2 = 0): 0.001 S/m; viscosity (x2 = 0): 17.41 mPa·s

With `CCCC[n+]1ccn(C)c1.F[B-](F)(F)F` + OCCO as the compound, how does the viscosity (x1 = 0.0895) read?
The viscosity was 15.5 mPa·s.

And the electrical conductivity (x1 = 0.1758)?
The electrical conductivity was 0.63 S/m.

And the viscosity (x1 = 0.1758)?
Its viscosity is 15.52 mPa·s.

What about the electrical conductivity (x1 = 0.3578) of the same compound?
Its electrical conductivity is 0.727 S/m.

What about the viscosity (x1 = 0.3578) of the same compound?
The viscosity was 18.87 mPa·s.

And the electrical conductivity (x1 = 0.4397)?
The electrical conductivity was 0.766 S/m.

And the viscosity (x1 = 0.4397)?
Its viscosity is 21.3 mPa·s.

And the electrical conductivity (x1 = 0.6482)?
Its electrical conductivity is 0.577 S/m.

And the viscosity (x1 = 0.6482)?
Its viscosity is 31.97 mPa·s.

And the viscosity (x1 = 0.8121)?
Its viscosity is 51.8 mPa·s.
